Laboratory results reported in patent publication US5420115A, “Method for the treatment of protoza infections with 2^1 -deoxy-2^1 -fluoropurine nucleosides” (priority 1992, dated 1995).
Where two headings read alike, the source gives them in different places.

Legend:
Influenza A and B [1] = assay: microbe, parasite or virus in culture; type: cell-based, chick embryo cells; conditions: read-out: Anti-influenza Activity CE cells IC50
Influenza A and B [2] = type: in vivo, mouse; conditions: given as +(n), route and dose not specified
[3] = primary chick embryo (CE) cells, influenza strain not given

Compound	IC50 (Influenza A and B [1]; in Gallus gallus) [nM]	Mouse log10 reduction in virus titre (Average of 5 Mice) (Influenza A and B [2]) [log10]	IC50 (Influenza A and B [1]; [3]) [nM]
Nc1nc(N)c2ncn([C@@H]3O[C@H](CO)[C@@H](O)[C@H]3F)c2n1 [Example 6, 2,6-Diamino-9-(2-deoxy-2-fluoro-β-D-ribofuranosyl)-9H-purine]	600	2.1	–
Nc1nc2c(ncn2[C@@H]2O[C@H](CO)[C@@H](O)[C@H]2F)c(=O)[nH]1 [Example 7, 9-(2-Deoxy-2-fluoro-β-D-ribofuranosyl)guanine]	–	2.4	800 to 2000
Nc1ncnc2c1ncn2[C@@H]1O[C@H](CO)[C@@H](O)[C@H]1F [Example 8, 9-(2-Deoxy-2-fluoro-β-D-ribofuranosyl)adenine]	–	2.3	4000
Nc1ncc2ncn([C@@H]3O[C@H](CO)[C@@H](O)[C@H]3F)c2n1 [Example 9, 2-Amino-9-(2-deoxy-2-fluoro-β-D-ribofuranosyl)-9H-purine]	–	1.6	–
COc1nc(N)nc2c1ncn2[C@@H]1O[C@H](CO)[C@@H](O)[C@H]1F [Example 12, 2-Amino-9-(2-deoxy-2-fluoro-β-D-ribofuranosyl)-6-methoxy-9H-purine]	–	1.9	400
